Results on one compound are retold here after patent US20110160213A1, “PHARMACEUTICAL COMPOSITIONS FOR THE TREATMENT OF INFLAMMATORY AND ALLERGIC DISORDERS” (Glenmark Pharmaceuticals, S.A., priority 2007, published 2011).

The data set is described as follows: Solubility by shake flask method in various media. The data set is classed as physicochemical. Particulars: for Solubility: about 37° C., after 24 hours.

Turning to `O=C(Nc1c(Cl)c[n+]([O-])cc1Cl)c1ccc(OC(F)F)c2oc3ccncc3c12.[Na]` [3,5-dichloro-4-(6-difluoromethoxybenzo[4,5]furo[3,2-c]pyridin-9-ylcarboxamido)-1-pyridiniumolate, sodium salt], the Solubility reads like this: (0.1N HCl with 1% sodium lauryl sulphate) 8.81 mg/250 ml; (0.1N HCl) 9.17 mg/250 ml; (Acetate buffer pH 4.5) 1.69 mg/250 ml; (Acetate buffer pH 4.5 with 0.1% SLS) 4.81 mg/250 ml; (Citrate buffer pH 3.0) 6.02 mg/250 ml; (Citrate buffer pH 3.0 with 1% Triton X) 8.6 mg/250 ml. The Solubility (Water) is 0.68 mg/250 ml. Besides, for the setting “water”, the “Solubility in water (in words)” value was “poor solubility in water”.
